Measurements from ChEMBL document CHEMBL1136681, “[3H]-(R)-NPTS, a radioligand for the type 1 glycine transporter” (Bioorg Med Chem Lett, 2003).

Test: Inhibition of [3-H]-glycine uptake into rat synaptosomes
Assay type: subcellular, Brain

Row | IC50 | Compound
1 | 153 nM | Cc1ccc(C(=O)c2ccc(OC(CCN(C)CC(=O)O)c3ccccc3)cc2)cc1 (configuration not stated)
2 | 36.4 nM | CN(CCC(Oc1ccc(-c2ccccc2)cc1)c1ccc(F)cc1)CC(=O)O (configuration not stated)
